The values below are quoted from earlier work in PMC4696931 (Advanced healthcare materials, 2015).

Series [1] has as its system MMP2. Conditions: linker peptide alone.
Series [2] relates to MMP2. To be noted: PEG hydrogels with the peptide as crosslinker.

For the substance SGESPAY↓YTA [NRL1], the “reported kcat KM^−1 for MMP2” value in series [1] was 440000 M⁻¹ s⁻¹. Besides, in series [2], the “time to degradation of hydrogels crosslinked with the sequence in MMP2” value is on record as ~ 1 days.
